The text below walks through data of ChEMBL document CHEMBL4316600, “Electrostatic Complementarity as a Fast and Effective Tool to Optimize Binding and Selectivity of Protein-Ligand Complexes” (J Med Chem, 2019).

The target of this experiment is Dual specificity mitogen-activated protein kinase kinase 1 (Homo sapiens, UniProt Q02750). Put plainly: Inhibition of MEK1 (unknown origin).
Dual specificity mitogen-activated protein kinase kinase 1, sequence (Q02750 whole entry): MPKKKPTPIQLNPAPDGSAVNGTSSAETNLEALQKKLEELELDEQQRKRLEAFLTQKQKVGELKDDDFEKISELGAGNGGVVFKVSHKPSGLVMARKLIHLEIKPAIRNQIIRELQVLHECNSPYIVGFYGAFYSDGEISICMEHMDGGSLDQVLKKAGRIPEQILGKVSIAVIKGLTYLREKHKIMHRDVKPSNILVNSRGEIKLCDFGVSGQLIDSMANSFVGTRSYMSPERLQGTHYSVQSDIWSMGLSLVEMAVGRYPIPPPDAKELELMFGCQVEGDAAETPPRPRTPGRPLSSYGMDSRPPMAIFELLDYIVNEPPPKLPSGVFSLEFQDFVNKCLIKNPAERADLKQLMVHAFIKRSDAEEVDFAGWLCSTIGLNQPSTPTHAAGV
As for `O=C(NOCCCO)c1ccc(F)c(F)c1Nc1ccc(I)cc1F`, the IC50 came to 2 nM.
Molecule `O=C(NOCCCO)c1ccc(F)c(F)c1Nc1ccc(Cl)cc1F` showed an IC50 of 26 nM.
As to `O=C(NOCCCO)c1ccc(F)c(F)c1Nc1ccc(F)cc1F`, it took 120 nM to reach half-maximal inhibition (IC50).
The molecule `O=C(NOCCCO)c1ccc(F)c(F)c1Nc1ccc(Br)cc1F` came in with an IC50 of 7.7 nM.
